The text below walks through data of patent US4182897A, “Amino- or guanidino-phenylpropionic acid derivatives” (Torii & Co., Ltd., priority 1977, dated 1980).

As a reminder, the inhibition is the relative decrease from the control value, in per cent.

Where a name gives a salt, the structure may show the parent alone.

One assay addresses T1, Trypsin (Bos taurus, UniProt P00760).
T1 sequence (P00760 24-246): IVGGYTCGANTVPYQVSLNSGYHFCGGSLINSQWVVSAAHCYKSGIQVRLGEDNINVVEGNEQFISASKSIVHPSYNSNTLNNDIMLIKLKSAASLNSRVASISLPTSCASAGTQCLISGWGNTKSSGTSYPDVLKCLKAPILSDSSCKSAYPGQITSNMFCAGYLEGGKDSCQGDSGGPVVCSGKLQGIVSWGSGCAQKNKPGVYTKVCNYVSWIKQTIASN
As to the kind of experiment: Inhibitory effect on ester-hydrolyzing activity of trypsin (TAMe substrate). It counts as biochemical. The conditions noted are these: for inhibition at 1000 µM: read-out: percent inhibition at 10^-3 M (trypsin); for IC50: tosylarginine methyl ester hydrolysis, read-out: ID50 (trypsin). The procedure:
(A) Determination of Enzyme-inhibitory Activity: The enzyme-inhibitory activities in vitro of the compounds of this invention were measured by the following procedure according to the method of M. Muramatsu et al. [[…]. Makino, Y. Hayashi and S. Fujii: J. […] Then, 10 μmoles of the substrate, TAMe (tosylarginine methyl ester), was added, and incubation was performed at 37° C. for 30 minutes. After the incubation, 1.5 ml of 2 M alkaline hydroxylamine was added and thoroughly mixed, and allowed to stand at room temperature for 15 minutes.

The target in a further assay is Human Plasmin (Homo sapiens, UniProt P00747). As to the kind of experiment: Inhibitory effect on ester-hydrolyzing activity of human plasmin (TAMe substrate). It counts as biochemical. The settings on record: for inhibition at 1000 µM: read-out: percent inhibition at 10^-3 M (plasmin). The procedure: (A) Determination of Enzyme-inhibitory Activity: The enzyme-inhibitory activities in vitro of the compounds of this invention were measured by the following procedure according to the method of M. Muramatsu et al. [[…]. Makino, Y. Hayashi and S. Fujii: J. […] (2) Inhibitory Effect on Ester-hydrolyzing Activity of Human Plasmin It was measured by using 0.1 ml of plasmin (generated by activation of plasminogen with streptokinase) and TAMe as substrate following the method described in (1).

A further assay concerns the target T2, Human Cl Esterase (Homo sapiens, UniProt P09871).
T2 sequence (P09871 438-688 limits assumed): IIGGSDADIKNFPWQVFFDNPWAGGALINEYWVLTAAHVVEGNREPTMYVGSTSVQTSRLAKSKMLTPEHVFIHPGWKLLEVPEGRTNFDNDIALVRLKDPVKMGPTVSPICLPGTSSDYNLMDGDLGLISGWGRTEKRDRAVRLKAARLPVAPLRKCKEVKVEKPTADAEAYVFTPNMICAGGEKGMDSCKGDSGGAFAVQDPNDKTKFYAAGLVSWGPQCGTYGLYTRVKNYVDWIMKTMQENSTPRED
T2 sequence (P09871 16-437 partner limits assumed): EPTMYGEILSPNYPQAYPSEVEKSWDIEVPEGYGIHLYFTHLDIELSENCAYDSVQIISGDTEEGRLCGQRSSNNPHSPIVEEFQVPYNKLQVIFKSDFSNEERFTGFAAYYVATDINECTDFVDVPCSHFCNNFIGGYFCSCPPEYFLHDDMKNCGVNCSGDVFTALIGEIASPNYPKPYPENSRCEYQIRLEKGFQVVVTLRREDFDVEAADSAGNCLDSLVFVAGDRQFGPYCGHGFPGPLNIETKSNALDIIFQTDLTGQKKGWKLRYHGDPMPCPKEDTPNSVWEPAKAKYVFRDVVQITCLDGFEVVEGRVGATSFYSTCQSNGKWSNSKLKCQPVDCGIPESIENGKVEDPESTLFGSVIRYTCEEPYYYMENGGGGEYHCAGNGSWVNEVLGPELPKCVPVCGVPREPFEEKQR
As to the kind of experiment: Inhibitory effect on ester-hydrolyzing activity of human Cl esterase (ATEe substrate). It counts as biochemical. The conditions noted are these: for IC50: acetyltyrosine ethyl ester hydrolysis, read-out: ID50 (Cl esterase); for inhibition at 1000 µM: read-out: percent inhibition at 10^-3 M (Cl esterase).

The target in a further assay is Human Plasma Kallikrein (Homo sapiens, UniProt P03952). As to the kind of experiment: Inhibitory effect on ester-hydrolyzing activity of human plasma kallikrein (TAMe substrate). Format: biochemical. The conditions noted are these: for inhibition at 1000 µM: read-out: percent inhibition at 10^-3 M (kallikrein). The protocol: (A) Determination of Enzyme-inhibitory Activity: The enzyme-inhibitory activities in vitro of the compounds of this invention were measured by the following procedure according to the method of M. Muramatsu et al. [[…]. Makino, Y. Hayashi and S. Fujii: J.

For a further assay, the target named is Bovine Thrombin (Bos taurus, UniProt P00735). As to the kind of experiment: Inhibitory effect on ester-hydrolyzing activity of bovine thrombin (TAMe substrate). Format: biochemical. The conditions noted are these: for inhibition at 1000 µM: read-out: percent inhibition at 10^-3 M (thrombin). The protocol:
(4) Inhibitory Effect on Ester-Hydrolyzing Activity of Bovine Thrombin
It was measured by using 0.4 ml of bovine thrombin […], 0.02 M sodium phosphate buffer solution (pH 7.4) and TAMe as substrate following the method described in (1).

For assay [1], the system named is complement-dependent hemolysis of sensitized erythrocytes. Description: Antihemolytic activity (prevention of complement-dependent hemolysis). Format: cell-based. The settings on record: Erythrocyte, 10 min; 10^-4 M. The procedure: (C) Determination of Antihemolytic Activity: Preventions of the complement-dependent hemolysis by the compounds of this invention were measured according to the method of B. R. Baker et al. [J. Med. Chem., 12, 408-414 (1969)] by the following procedure: […] The mixture was incubated at 37° C. for 10 minutes. The reaction was stopped by adding 2.7 ml of an ice-cold citrate-saline solution, and the resulting mixture was centrifuged at 3000 rpm for 3 minutes. Absorbance of the supernatant was measured at 541 nm. As the standard, GVB^2+ (gelatin veronal buffer) was substituted for the sample solution and, as the control, GVB^2+ was substituted for the complement.

Assay [2] relates to collagen induced platelet aggregation of rabbit PRP. As to the kind of experiment: Inhibition of collagen induced platelet aggregation of rabbit PRP. Format: cell-based. The conditions noted are these: Oryctolagus cuniculus; for inhibition at 2.5 µg/mL: 2.5 μg/ml; for inhibition at 5 µg/mL: 5.0 μg/ml; for inhibition at 10 µg/mL: 10.0 μg/ml; for inhibition at 1 µg/mL: 1.0 μg/ml. The protocol:
(B) Determination of Inhibitory Activity on Collagen Induced Platelet Aggregation:
According to the method of Born et al. [Born, G. V. R.: J. Physiol., 168. 178 (1963)], the platelet aggregation inhibition (%) was determined at various concentrations of compounds by the following procedure:
Rabbit PRP (platelet rich plasma), 0.9 ml, obtained from sodium citrate-added blood, was taken into a polyethylene tube and incubated at 37° C. for 1 minute, and then 10 μl of a compound solution or physiological saline as control, was added.
Subsequently, 0.1 ml of collagen solution was added, and change in absorbance of PRP, resulting from the progress of platelet aggregation, was determined by means of platelet aggregation meter and recorded.
Percent inhibition was calculated according to the following equation: [formula]

In a further assay the test system is proteolytic enzymes. The settings on record: prior art; cited from earlier work.

Chain of Human Plasmin (P00747 581-810 limits assumed): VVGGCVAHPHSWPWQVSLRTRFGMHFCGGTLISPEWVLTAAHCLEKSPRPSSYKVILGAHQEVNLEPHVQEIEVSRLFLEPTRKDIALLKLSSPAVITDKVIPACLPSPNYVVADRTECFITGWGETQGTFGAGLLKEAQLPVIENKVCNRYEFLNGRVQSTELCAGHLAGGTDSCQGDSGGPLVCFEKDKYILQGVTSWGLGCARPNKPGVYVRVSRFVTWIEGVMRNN
Chain of Human Plasmin (P00747 97-580 partner limits assumed): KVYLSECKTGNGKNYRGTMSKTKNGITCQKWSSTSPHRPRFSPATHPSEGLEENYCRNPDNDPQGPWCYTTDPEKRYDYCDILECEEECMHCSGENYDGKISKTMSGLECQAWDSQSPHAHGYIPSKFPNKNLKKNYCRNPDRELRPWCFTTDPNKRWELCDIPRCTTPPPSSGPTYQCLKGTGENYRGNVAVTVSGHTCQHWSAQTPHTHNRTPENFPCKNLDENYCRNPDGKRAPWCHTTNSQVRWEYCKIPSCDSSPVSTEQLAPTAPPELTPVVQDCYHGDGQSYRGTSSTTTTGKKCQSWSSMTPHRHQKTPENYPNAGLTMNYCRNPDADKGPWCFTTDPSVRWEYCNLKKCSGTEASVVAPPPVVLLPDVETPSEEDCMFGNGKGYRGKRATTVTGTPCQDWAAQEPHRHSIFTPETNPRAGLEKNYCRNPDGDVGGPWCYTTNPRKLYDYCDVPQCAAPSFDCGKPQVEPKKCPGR
Chain of Human Plasma Kallikrein (P03952 391-638 limits assumed): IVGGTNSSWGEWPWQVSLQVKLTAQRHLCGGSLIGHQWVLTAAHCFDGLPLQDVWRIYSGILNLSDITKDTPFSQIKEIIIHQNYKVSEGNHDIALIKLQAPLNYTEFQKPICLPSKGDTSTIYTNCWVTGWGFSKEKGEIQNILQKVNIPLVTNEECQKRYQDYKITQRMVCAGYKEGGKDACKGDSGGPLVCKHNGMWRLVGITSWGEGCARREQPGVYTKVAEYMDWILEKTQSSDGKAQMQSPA
Chain of Human Plasma Kallikrein (P03952 20-390 partner limits assumed): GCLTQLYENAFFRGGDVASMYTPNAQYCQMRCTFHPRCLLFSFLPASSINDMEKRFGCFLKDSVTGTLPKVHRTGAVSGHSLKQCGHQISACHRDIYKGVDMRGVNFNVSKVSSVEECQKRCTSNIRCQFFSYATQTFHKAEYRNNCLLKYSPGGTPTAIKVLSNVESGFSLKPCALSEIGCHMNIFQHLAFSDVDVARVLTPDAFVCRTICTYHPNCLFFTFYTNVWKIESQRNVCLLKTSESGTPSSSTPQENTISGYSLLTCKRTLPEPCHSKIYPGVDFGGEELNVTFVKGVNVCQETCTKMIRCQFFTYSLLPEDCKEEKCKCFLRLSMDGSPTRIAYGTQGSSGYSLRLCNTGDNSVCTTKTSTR
Method for Human Cl Esterase: It was measured by using 0.1 ml of Cl esterase, 0.1 ml of 0.02 M sodium phosphate buffer solution (pH 7.4) and 10 μmoles of ATEe (acetyltyrosine ethyl ester) as substrate following the method described in (1).

Take `CCCC(Cc1cccc(NC(=N)N)c1)C(=O)Oc1ccccc1` (stereo not drawn) [compound 68, phenyl α-n-propyl-β-(m-guanidinophenyl)-propionate]: the inhibition at 1000 µM at Trypsin is less than 10%; at Human Plasmin, 22%; on Human Plasma Kallikrein, 17.6%; on Bovine Thrombin it was less than 10%. In addition, the IC50 on Human Cl Esterase (in vitro) is 430 µM. The inhibition at 100 µM in assay [1] is 30%.

For `CCOC(=O)c1ccc(OC(=O)C(CC)Cc2ccc(NC(=N)N)cc2)cc1` (stereo not drawn) [compound 76, p-ethoxycarbonylphenylα-ethyl-β-(p-guanidinophenyl)-propionate], in assay [1], the inhibition at 100 µM is 33%.

Consider `CCC(Cc1cccc(N)c1)C(=O)Oc1cccc2ccccc12` (stereo not drawn) [Compound No. 7, 1-naphthyl α-ethyl-β-(m-aminophenyl)-propionate], for which the IC50 on Trypsin (in vitro) came out at 10 µM. Further, the inhibition at 1000 µM on Human Plasmin was less than 10%. Also, the inhibition at 1000 µM on Human Cl Esterase was found to be 11.7%. Moreover, the inhibition at 1000 µM at Bovine Thrombin is less than 10%. Besides, in assay [2], the inhibition at 2.5 µg/mL was 37%, at 5 µg/mL the inhibition was 84% and 10 µg/mL produced 100% inhibition.

Regarding `CC(Cc1ccc(NC(=N)N)cc1)C(=O)Oc1cccc2ccccc12` (stereo not drawn) [compound 54, 1-naphthyl α-methyl-β-(p-guanidinophenyl)-propionate], in assay [1], the inhibition at 100 µM was 49.3%.

For the molecule `CCCCOc1ccc(OC(=O)CCc2ccc(N)cc2)cc1` [compound 33, p-n-butoxyphenyl β-(p-aminophenyl)-propionate], the IC50 on Trypsin (in vitro) amounted to 890 µM. In addition, the inhibition at 1000 µM at Human Plasmin is less than 10%. The inhibition at 1000 µM at Human Cl Esterase was less than 10%. Moreover, the inhibition at 1000 µM at Human Plasma Kallikrein is less than 10%. In addition, the inhibition at 1000 µM at Bovine Thrombin came to 19.9%. In assay [2] (0.5 μg/ml), this molecule yielded an inhibition at 0.5 µg/mL of 46%. In assay [2], this molecule registered an inhibition at 1 µg/mL of 100%, an inhibition at 2.5 µg/mL of 100%, an inhibition at 5 µg/mL of 100% and an inhibition at 10 µg/mL of 100%.

As for `COc1ccc(OC(=O)CCc2ccc(N)cc2)cc1` [compound 32, p-methoxyphenyl β-(p-aminophenyl)-propionate], the inhibition at 1000 µM is 38.8% at Trypsin, less than 10% at Human Plasmin, less than 10% on Human Cl Esterase and less than 10% at Human Plasma Kallikrein. Moreover, the IC50 at Bovine Thrombin amounted to 170 µM. For the same molecule, in assay [2], the inhibition at 2.5 µg/mL amounted to 41%. For the same molecule, the inhibition at 5 µg/mL in assay [2] came out at 100%. The molecule further registered an inhibition at 10 µg/mL in assay [2] of 100%.

On to `CC(=O)Oc1ccccc1C(=O)O` [aspirin, reference compound], for which, in assay [2], the inhibition at 5 µg/mL is 78% and testing at 10 µg/mL gave an inhibition of 100%.

`Cl.Nc1ccc(CCC(=O)Oc2ccccc2)cc1` [Compound No. 3, Phenyl β-(p-aminophenyl)-propionate hydrochloride]: at Trypsin (in vitro), the “inhibitory action on trypsin” value is recorded as “no inhibitory action”. Besides, the inhibition at 1000 µM at Trypsin, on Human Plasmin, on Human Cl Esterase and on Human Plasma Kallikrein was less than 10% throughout. Further, the “inhibitory action on plasmin” value on Human Plasmin (in vitro) is recorded as “no inhibitory action”. In addition, the “inhibitory action on Cl esterase” value at Human Cl Esterase (in vitro) was “no inhibitory action”. Besides, the “inhibitory action on kallikrein” value on Human Plasma Kallikrein (in vitro) is “no inhibitory action”. On Bovine Thrombin, this molecule displayed an IC50 of 290 µM.

`CC(Cc1cccc(NC(=N)N)c1)C(=O)Oc1cccc2ccccc12` (stereo not drawn) [compound 50, 1-naphthyl α-methyl-β-(m-guanidinophenyl)-propionate]: the IC50 on Trypsin (in vitro) was determined as 57 µM. In addition, on Human Plasmin, the inhibition at 1000 µM turned out to be 42%. For the same molecule, the IC50 at Human Cl Esterase (in vitro) is 140 µM. The inhibition at 1000 µM at Bovine Thrombin is less than 10%. Besides, in assay [2], the inhibition at 1 µg/mL worked out at 4%, testing at 2.5 µg/mL gave an inhibition of 100%, at 5 µg/mL the inhibition was 100% and the inhibition at 10 µg/mL was 100%.

Turning to `CCOC(=O)c1ccc(OC(=O)C(CC)Cc2ccc(N)cc2)cc1` (stereo not drawn) [compound 36, p-ethoxycarbonylphenyl α-ethyl-β-(p-aminophenyl)-propionate], at Trypsin (in vitro), the IC50 stood at 170 µM. Further, the inhibition at 1000 µM on Human Plasmin was less than 10%; on Human Cl Esterase, less than 10%; at Human Plasma Kallikrein it was 15.9%; on Bovine Thrombin, 25.3%.

As for `CCOC(=O)c1ccc(OC(=O)CCCCCNC(=N)N)cc1.CS(=O)(=O)O` [FOY, ethyl p-(6-guanidinohexanoyloxy)benzoate methanesulfonate], in the assay on proteolytic enzymes, the “inhibitory activity to proteolytic enzymes” value is listed as “inhibitory activity to proteolytic enzymes” and the “specificity of enzyme inhibition” value is “low in specificity”.

For the molecule `N=C(N)c1ccc(CC(=O)C(=O)O)cc1` [4-amidinophenylpyruvic acid], in the assay with proteolytic enzymes, the “inhibitory activity to proteolytic enzymes” value was “inhibitory activity to proteolytic enzymes” and the “specificity of enzyme inhibition” value is on record as “low in specificity”.

In the case of `Cc1ccc(OC(=O)CCc2ccc(N)cc2)cc1` [Compound No. 1, p-Methylphenyl β-(p-aminophenyl)-propionate hydrochloride], the inhibition at 1000 µM at Trypsin, on Human Plasmin, at Human Cl Esterase and at Human Plasma Kallikrein was less than 10% in each case. The IC50 on Bovine Thrombin was determined as 880 µM. The inhibition at 10 µg/mL in assay [2] came out at 42%.
